Where two headings read alike, the source gives them in different places.
Experiments:
Assay in all cases: KINOMEscan (ScanMAX) kinase profiling
Format in all cases: binding
[1] = molecular target: T1, panel of 468 kinases (Homo sapiens, UniProt Q13523); conditions: PRP4; 1 μM; read-out: % control
T1 construct: purchased KINOMEscan (ScanMAX) service
Procedure: (§1) The kinase selectivity of inventive compounds 12, 75, and 77 was evaluated by KINOMEscan®. KINOMEscan® (ScanMAX™) analysis was performed against a near comprehensive panel of 468 kinases. The control percentage (% control) for inventive compounds at 1 μM in DMSO was determined by Equation 1: % control=(inventive compound−positive control)/(negative control−positive control)×100%, Equation 1
(§2) wherein the positive control is a compound with a % control value of 0% relative light units (RLU), and the negative control (i.e., DMSO) has % control value of 100% RLU. The enzyme selectivity in the present invention is defined as follows: inventive compounds are considered active for an enzyme when the observed % control is less than 35% (<35%).

[2] = molecular target: T2, panel of 468 kinases (Homo sapiens, UniProt P00533); conditions: EGFR; 1 μM; read-out: % control
T2 construct: purchased KINOMEscan (ScanMAX) service
T2 sequence (P00533 25-1210): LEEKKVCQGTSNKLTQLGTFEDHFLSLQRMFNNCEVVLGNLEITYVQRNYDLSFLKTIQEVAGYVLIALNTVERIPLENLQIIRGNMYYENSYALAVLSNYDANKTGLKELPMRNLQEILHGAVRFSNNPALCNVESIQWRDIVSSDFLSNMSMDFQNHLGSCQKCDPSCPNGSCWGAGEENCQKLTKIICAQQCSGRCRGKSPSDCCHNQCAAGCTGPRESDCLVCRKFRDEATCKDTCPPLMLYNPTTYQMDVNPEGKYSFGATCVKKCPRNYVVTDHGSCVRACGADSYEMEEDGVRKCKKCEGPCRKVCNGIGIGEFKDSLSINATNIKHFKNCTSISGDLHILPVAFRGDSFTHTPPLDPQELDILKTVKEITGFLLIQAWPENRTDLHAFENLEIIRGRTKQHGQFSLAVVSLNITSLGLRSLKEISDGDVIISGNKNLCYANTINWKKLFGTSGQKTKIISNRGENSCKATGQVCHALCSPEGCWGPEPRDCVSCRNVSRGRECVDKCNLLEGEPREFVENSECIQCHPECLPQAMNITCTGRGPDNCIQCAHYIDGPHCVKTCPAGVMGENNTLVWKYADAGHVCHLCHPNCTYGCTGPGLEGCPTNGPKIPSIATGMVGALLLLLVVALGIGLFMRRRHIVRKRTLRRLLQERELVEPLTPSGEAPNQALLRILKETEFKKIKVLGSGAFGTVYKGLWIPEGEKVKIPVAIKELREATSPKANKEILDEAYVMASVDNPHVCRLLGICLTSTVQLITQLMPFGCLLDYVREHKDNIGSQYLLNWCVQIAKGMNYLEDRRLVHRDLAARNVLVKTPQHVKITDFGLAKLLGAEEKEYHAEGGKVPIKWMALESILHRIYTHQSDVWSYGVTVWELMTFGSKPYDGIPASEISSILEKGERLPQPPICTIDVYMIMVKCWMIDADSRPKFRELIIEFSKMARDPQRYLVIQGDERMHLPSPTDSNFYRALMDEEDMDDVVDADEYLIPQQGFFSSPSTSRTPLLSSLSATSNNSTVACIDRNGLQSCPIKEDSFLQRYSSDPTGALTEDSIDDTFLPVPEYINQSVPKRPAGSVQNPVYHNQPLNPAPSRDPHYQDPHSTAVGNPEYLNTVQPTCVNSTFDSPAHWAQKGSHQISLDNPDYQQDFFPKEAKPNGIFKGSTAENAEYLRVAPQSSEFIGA
Procedure: as §1, §2

[3] = molecular target: T3, panel of 468 kinases (Homo sapiens, UniProt Q9UK32); conditions: 1 μM, read-out: % control
T3 construct: purchased KINOMEscan (ScanMAX) service
Procedure: as §1, §2

[4] = molecular target: T4, panel of 468 kinases (Homo sapiens, UniProt P42336, C420R); conditions: PIK3CA(C420R); 1 μM; read-out: % control
T4 construct: purchased KINOMEscan (ScanMAX) service
Procedure: as §1, §2

[5] = molecular target: T5, panel of 468 kinases (Homo sapiens, UniProt Q13470); conditions: TNK1; 1 μM; read-out: % control
T5 construct: purchased KINOMEscan (ScanMAX) service
T5 sequence (Q13470 1-666): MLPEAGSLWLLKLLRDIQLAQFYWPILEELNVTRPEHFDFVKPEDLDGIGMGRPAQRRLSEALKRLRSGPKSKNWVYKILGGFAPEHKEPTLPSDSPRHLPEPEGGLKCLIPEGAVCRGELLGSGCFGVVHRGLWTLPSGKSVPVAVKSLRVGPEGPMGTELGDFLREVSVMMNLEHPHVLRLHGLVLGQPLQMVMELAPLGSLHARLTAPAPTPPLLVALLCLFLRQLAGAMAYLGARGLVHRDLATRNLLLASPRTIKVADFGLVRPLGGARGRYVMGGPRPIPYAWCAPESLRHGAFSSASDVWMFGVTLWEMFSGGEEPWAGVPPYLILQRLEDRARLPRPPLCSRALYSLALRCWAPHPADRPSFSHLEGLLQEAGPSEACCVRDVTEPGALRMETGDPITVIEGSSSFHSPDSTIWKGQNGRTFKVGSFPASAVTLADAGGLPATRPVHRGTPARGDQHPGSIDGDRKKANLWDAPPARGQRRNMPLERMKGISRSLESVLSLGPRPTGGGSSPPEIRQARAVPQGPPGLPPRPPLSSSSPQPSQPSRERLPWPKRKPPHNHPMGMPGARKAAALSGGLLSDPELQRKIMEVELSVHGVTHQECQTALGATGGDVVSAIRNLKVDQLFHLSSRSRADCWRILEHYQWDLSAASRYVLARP
Procedure: as §1, §2

[6] = molecular target: T6, panel of 468 kinases (Homo sapiens, UniProt Q9BYP7); conditions: WNK3; 1 μM; read-out: % control
T6 construct: purchased KINOMEscan (ScanMAX) service
Procedure: as §1, §2

[7] = molecular target: T7, panel of 468 kinases (Homo sapiens, UniProt O00238); conditions: BMPR1B; 1 μM; read-out: % control
T7 construct: purchased KINOMEscan (ScanMAX) service
Procedure: as §1, §2

[8] = molecular target: T8, panel of 468 kinases (Homo sapiens, UniProt Q96D53); conditions: ADCK4; 1 μM; read-out: % control
T8 construct: purchased KINOMEscan (ScanMAX) service
T8 sequence (Q96D53 1-544): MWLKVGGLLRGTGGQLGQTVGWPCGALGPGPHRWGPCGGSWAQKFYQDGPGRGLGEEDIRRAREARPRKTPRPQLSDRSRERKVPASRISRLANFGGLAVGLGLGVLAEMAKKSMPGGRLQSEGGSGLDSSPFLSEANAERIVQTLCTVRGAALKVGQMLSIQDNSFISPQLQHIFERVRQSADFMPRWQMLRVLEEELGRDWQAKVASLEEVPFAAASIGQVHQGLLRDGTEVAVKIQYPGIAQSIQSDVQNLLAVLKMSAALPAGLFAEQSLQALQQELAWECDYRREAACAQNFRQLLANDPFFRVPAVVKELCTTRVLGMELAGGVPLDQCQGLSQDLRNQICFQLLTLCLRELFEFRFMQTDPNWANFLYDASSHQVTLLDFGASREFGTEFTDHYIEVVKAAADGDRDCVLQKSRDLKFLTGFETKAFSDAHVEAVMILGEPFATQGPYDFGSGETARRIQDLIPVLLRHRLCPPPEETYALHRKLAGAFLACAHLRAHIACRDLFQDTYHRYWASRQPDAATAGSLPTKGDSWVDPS
Procedure: as §1, §2

[9] = molecular target: T9, panel of 468 kinases (Homo sapiens, UniProt Q9NSY1); conditions: BIKE; 1 μM; read-out: % control
T9 construct: purchased KINOMEscan (ScanMAX) service
Procedure: as §1, §2

[10] = molecular target: T10, panel of 468 kinases (Homo sapiens, UniProt Q06187); conditions: BTK; 1 μM; read-out: % control
T10 construct: purchased KINOMEscan (ScanMAX) service
Procedure: as §1, §2

[11] = molecular target: T11, panel of 468 kinases (Homo sapiens, UniProt P27037); conditions: ACVR2A; 1 μM; read-out: % control
T11 construct: purchased KINOMEscan (ScanMAX) service
Procedure: as §1, §2

[12] = molecular target: T12, panel of 468 kinases (Homo sapiens, UniProt P51812); conditions: 1 μM, read-out: % control
T12 construct: purchased KINOMEscan (ScanMAX) service
T12 sequence (P51812 whole entry): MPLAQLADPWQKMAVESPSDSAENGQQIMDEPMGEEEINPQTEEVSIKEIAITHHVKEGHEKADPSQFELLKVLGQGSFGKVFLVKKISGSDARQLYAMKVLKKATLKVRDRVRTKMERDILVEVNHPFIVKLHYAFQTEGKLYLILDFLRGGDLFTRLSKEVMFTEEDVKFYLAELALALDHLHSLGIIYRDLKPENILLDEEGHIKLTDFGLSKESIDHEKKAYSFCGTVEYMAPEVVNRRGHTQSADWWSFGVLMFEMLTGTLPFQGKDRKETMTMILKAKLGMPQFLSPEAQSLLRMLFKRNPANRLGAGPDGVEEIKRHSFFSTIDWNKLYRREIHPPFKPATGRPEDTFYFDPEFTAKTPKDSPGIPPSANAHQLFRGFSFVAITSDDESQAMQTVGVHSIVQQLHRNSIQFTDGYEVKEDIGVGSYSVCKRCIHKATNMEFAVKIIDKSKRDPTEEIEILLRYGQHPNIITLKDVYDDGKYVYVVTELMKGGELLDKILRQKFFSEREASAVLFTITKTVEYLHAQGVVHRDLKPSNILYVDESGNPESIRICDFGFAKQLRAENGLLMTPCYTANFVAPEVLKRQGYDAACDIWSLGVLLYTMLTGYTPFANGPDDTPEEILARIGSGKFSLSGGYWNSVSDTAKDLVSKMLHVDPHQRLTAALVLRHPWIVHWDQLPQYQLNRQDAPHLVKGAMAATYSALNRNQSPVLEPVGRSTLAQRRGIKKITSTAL
Procedure: as §1, §2

[13] = molecular target: T13, panel of 468 kinases (Homo sapiens, UniProt P19784); conditions: CSNK2A2; 1 μM; read-out: % control
T13 construct: purchased KINOMEscan (ScanMAX) service
T13 sequence (P19784 whole entry): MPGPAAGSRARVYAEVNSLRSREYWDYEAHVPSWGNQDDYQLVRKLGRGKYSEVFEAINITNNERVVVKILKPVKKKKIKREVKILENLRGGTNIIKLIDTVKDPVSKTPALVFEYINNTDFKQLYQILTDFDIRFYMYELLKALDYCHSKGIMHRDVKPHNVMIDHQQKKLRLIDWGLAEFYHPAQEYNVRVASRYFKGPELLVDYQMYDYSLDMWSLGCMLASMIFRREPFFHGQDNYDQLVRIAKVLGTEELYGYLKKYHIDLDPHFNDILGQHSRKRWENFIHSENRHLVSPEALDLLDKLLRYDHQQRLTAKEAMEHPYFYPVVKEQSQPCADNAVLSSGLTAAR
Procedure: as §1, §2

[14] = molecular target: T14, panel of 468 kinases (Homo sapiens, UniProt P08922); conditions: ROS1; 1 μM; read-out: % control
T14 construct: purchased KINOMEscan (ScanMAX) service
T14 sequence (P08922 28-2347): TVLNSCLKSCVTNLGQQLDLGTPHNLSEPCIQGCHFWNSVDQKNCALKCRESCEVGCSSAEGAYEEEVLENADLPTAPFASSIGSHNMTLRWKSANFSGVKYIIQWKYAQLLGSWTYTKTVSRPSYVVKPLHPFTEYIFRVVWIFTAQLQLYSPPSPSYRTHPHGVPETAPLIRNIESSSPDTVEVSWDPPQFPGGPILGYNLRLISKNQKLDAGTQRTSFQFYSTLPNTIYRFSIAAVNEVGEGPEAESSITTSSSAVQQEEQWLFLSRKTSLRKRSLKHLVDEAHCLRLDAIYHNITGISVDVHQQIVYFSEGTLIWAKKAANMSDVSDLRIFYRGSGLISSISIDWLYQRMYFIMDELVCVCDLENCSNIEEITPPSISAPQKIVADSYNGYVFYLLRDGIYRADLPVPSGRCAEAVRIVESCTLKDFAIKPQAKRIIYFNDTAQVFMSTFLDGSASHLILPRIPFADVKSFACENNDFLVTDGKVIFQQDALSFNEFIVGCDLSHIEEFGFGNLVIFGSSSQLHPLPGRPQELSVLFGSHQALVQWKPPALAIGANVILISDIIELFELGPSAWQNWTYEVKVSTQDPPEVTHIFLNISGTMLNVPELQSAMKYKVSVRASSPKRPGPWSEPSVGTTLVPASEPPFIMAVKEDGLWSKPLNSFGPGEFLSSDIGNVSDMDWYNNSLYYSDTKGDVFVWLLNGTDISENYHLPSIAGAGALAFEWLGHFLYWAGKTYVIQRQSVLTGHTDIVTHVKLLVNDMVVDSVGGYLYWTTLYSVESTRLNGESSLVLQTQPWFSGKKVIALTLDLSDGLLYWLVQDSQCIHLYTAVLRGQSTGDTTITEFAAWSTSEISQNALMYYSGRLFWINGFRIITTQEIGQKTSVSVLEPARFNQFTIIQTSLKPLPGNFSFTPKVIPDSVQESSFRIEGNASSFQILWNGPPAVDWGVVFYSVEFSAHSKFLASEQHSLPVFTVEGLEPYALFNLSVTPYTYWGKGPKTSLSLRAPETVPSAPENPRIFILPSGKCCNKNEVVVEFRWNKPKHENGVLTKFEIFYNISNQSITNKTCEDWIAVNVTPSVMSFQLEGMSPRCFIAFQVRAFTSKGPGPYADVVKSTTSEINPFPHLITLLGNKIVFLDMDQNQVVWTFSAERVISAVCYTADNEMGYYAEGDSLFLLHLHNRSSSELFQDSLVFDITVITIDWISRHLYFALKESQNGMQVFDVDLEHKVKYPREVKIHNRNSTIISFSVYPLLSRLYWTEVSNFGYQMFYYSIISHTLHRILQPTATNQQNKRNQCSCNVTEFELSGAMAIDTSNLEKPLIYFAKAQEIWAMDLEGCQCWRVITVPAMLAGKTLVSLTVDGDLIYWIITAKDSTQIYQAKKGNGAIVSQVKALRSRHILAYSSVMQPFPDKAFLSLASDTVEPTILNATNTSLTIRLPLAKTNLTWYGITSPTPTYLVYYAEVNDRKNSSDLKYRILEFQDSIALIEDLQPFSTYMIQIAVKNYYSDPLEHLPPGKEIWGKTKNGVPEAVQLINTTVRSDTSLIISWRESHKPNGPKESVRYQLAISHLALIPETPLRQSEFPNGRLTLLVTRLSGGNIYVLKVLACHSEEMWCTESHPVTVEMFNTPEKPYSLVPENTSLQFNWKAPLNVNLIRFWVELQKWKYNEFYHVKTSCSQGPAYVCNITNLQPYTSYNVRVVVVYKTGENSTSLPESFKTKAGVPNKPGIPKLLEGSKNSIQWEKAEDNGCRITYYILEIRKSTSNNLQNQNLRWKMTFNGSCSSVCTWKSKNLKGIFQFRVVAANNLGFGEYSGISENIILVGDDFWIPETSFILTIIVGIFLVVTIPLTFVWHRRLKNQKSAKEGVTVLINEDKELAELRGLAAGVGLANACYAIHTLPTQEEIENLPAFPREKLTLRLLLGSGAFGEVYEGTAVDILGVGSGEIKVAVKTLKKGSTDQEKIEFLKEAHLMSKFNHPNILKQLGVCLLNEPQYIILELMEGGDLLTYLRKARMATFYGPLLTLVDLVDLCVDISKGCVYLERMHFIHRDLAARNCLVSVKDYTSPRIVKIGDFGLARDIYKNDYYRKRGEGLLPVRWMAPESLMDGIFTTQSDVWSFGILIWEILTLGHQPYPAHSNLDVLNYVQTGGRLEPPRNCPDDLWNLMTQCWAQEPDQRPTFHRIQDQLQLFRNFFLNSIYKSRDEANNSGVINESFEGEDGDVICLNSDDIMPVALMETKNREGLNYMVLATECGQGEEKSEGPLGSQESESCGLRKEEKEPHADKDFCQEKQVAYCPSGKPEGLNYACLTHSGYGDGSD
Procedure: as §1, §2

[15] = molecular target: T15, panel of 468 kinases (Homo sapiens, UniProt P53671); conditions: LIMK2; 1 μM; read-out: % control
T15 construct: purchased KINOMEscan (ScanMAX) service
Procedure: as §1, §2

[16] = molecular target: T16, panel of 468 kinases (Homo sapiens, UniProt Q86UX6); conditions: YANK3; 1 μM; read-out: % control
T16 construct: purchased KINOMEscan (ScanMAX) service
T16 sequence (Q86UX6 whole entry): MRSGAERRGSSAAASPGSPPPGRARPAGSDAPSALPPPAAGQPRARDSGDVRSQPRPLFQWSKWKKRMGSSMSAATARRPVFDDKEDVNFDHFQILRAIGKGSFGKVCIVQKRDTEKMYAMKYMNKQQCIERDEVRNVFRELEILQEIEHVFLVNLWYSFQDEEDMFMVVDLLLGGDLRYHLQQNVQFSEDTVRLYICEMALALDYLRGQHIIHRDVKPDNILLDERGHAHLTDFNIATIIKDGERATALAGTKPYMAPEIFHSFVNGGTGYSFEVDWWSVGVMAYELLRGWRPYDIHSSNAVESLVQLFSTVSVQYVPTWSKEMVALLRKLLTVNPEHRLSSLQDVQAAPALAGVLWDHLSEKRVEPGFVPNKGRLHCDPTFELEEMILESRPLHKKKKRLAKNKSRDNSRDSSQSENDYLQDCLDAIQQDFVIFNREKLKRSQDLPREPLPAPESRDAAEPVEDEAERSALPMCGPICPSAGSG
Procedure: as §1, §2

[17] = molecular target: T17, panel of 468 kinases (Homo sapiens, UniProt Q9NY57); conditions: YANK2; 1 μM; read-out: % control
T17 construct: purchased KINOMEscan (ScanMAX) service
Procedure: as §1, §2

Compound	remaining binding at 1 µM [1] [%]	remaining binding at 1 µM [2] [%]	remaining binding at 1 µM ([3]; RSK4(Kin.Dom.1-N-terminal)) [%]	remaining binding at 1 µM ([3]; RSK4(Kin.Dom.2-C-terminal)) [%]	remaining binding at 1 µM [4] [%]	remaining binding at 1 µM [5] [%]	remaining binding at 1 µM [6] [%]	remaining binding at 1 µM [7] [%]	remaining binding at 1 µM [8] [%]	remaining binding at 1 µM [9] [%]	remaining binding at 1 µM [10] [%]	remaining binding at 1 µM [11] [%]	remaining binding at 1 µM ([12]; RSK2(Kin.Dom.1-N-terminal)) [%]	remaining binding at 1 µM ([12]; RSK2(Kin.Dom.2-C-terminal)) [%]	remaining binding at 1 µM [13] [%]	remaining binding at 1 µM [14] [%]	remaining binding at 1 µM [15] [%]	remaining binding at 1 µM [16] [%]	remaining binding at 1 µM [17] [%]
CNc1nc(Nc2ccc(S(=O)(=O)N3CCC(N4CCOCC4)CC3)cc2OC)nc2[nH]cc(Cl)c12 [Compound 12, 5-chloro-N2-(2-methoxy-4-((4-morpholinopiperidin-1-yl)sulfonyl)phenyl)-N4-methyl-7H-pyrrolo[2,3-d]pyrimidine-2,4-diamine]	100	89	96	99	100	100	100	76	100	96	79	100	88	28	97	85	100	100	96
CNc1nc(Nc2ccc(C(=O)N3CCC(N4CCOCC4)CC3)c3c2OCO3)nc2[nH]cc(Cl)c12 [Compound 75, (7-((5-chloro-4-(methylamino)-7H-pyrrolo[2,3-d]pyrimidin-2-yl)amino)benzo[d][1,3]dioxol-4-yl)(4-morpholinopiperidin-1-yl)methanone]	100	80	86	100	100	100	93	67	100	40	98	100	71	31	49	86	99	100	100
CNc1nc(Nc2ccc(P3(=O)CCN(C4CCOCC4)CC3)cc2OC)nc2[nH]cc(Cl)c12 [Compound 77, 4-(4-((5-chloro-4-(methylamino)-7H-pyrrolo[2,3-d]pyrimidin-2-yl)amino)-3-methoxyphenyl)-1-(tetrahydro-2H-pyran-4-yl)-1,4-azaphosphinane 4-oxide]	100	84	92	77	100	96	98	80	81	91	100	100	70	34	80	54	84	100	100
